The record followed here is PMC2131780, “A Tale of Switched Functions: From Cyclooxygenase Inhibition to M-Channel Modulation in New Diphenylamine Derivatives” (PLoS ONE, 2007).

Each structure is given as a SMILES string.

For this test, the system named is COX enzymes (D122 mouse Lewis lung carcinoma cells). The experiment in a line: COX inhibition, PGE2 production in D122 cells. The class given is cell-based. Particulars: average of two experiments in triplicate. From the text: In addition, the aromatic rings of the diphenylamine moiety were substituted with different electron donating or withdrawing groups. In a first screen, two parameters were checked: (a) the non-selective inhibition of COX-1/COX-2 enzyme activities, measured by the production of PGE2 in cultured mouse colon adenocarcinoma (CT26) and mouse Lewis lung carcinoma cells (D122) cells; (b) the M-channel activity, measured by the heterologous coexpression of Kv7.2 and Kv7.3 subunits in Chinese hamster ovary (CHO) cells.
Mouse colon adenocarcinoma CT26 and mouse Lewis lung carcinoma D122 cells were grown in DMEM (D122) or RPMI (CT26) supplemented with 10% fetal calf serum, 4% glutamine, 1% penicillin-streptomycin-nystatin and 3% non essential amino acids (D122) and maintained in a humidified 37°C incubator with 5% CO2. For the COX assays, cells were grown onto 24 multiwell plates. Before the assay, cells were washed with serum-free medium; then tested compounds were added to the medium and incubated for 30 min at 37°C after which 30 µM arachidonic acid was added and incubated for additional 20 min. At the end of the incubations, 10 µM indomethacin was added to stop the reaction and medium was transferred to another 24 multiwell plate for measuring PGE2 production by radioimmunoassay (DuPont-NEN; Boston, MA) according to manufacturer protocol. Protein determination was assayed on scraped cells and was used to normalize the amount of PGE2 production. Assays with purified ovine COX-1 and human recombinant COX-2 were performed using the COX inhibitor screening assay (Cayman chemical company, Ann Arbor, MI), according to manufacturer protocol.

As for `O=C(Cc1cc([N+](=O)[O-])ccc1Nc1c(Cl)cccc1Cl)OCCO` [Compound 15], the IC50 (commonly the concentration needed to halve the response being measured) amounted to 0.229 µM.
